# Data published in patent publication US11229618B2 (Amarin Pharmaceuticals Ireland Limited, priority 2012, dated 2022).
# Tested on: subjects with Age-Associated Memory Impairment
# Experiment: AAMI 6-week study: CDR computerized cognitive test battery
# Format: in vivo, human
# Conditions: for Quality of Episodic Secondary Memory, LS mean difference versus placebo: overall; for Self-Rated Contentment, treatment effects: p<0.001
# Procedure: A single-center, 6-week, double-blind, randomizes, parallel-group, placebo-controlled, dose-ranging pilot study was performed to evaluate the efficacy, tolerability, and safety of >96% ethyl-EPA in subjects with subjective and objective memory impairment according to generally accepted criteria for Age-Associated Memory Impairment (“AAMI”). The primary objective of the study was to determine the effect of >96% ethyl-EPA 1 g, 2 g, and 4 g daily, compared to placebo, on cognitive performance in subjects with AAMI.
# Ninety-four subjects were randomized into one of six groups: 1 g E-EPA daily (n=23), 2 g E-EPA daily (n=24), 4 g E-EPA daily (n=24), 1 g placebo daily (n=7), 2 g placebo daily (n=8), and 4 g placebo daily (n=8). E-EPA was provided as 500 mg soft gel capsules containing>96% E-EPA and 0.2% dl-α-tocopherol as an antioxidant. Placebo capsules contained 467 mg of liquid paraffin and 0.2% dl-α-tocopherol. Ninety-one subjects completed the study. Two subjects in the 2 g E-EPA group and one subject in the 2 g placebo group discontinued the study.
# The study consisted of a screening visit, a training visit, and four study visits. At the screening visit, subjects' eligibility was determined through cognitive tests (verbal paired associated learning [PAL] subscale, vocabulary subtest, Memory Assessment Clinics Questionnaire [MAC-Q], mini mental state evaluation [MMSE] and MINI [mini international neuropsychiatric interview; sections 1 and 2 of Diagnostic and Statistical Manual of Mental Disorders, 4th Edition (DSM-IV) plus dysthymia]), haematology, clinical chemistry and 12-lead electrocardiogram (ECG). At the training visit, subjects were shown how to use the CDR computerized system. Subjects took study drug for 6 weeks and on Days 0, 14, 28 and 42, subjects underwent the CDR cognitive test battery.
# A selection of tasks from the CDR computerized cognitive assessment system were administered at Visit 2 (training visit), Visit 3 (baseline), Visit 4 (Day 14), Visit 5 (Day 28) and Visit 6 (Day 42). Parallel forms of the tests were presented at each testing session. All tasks were computer-controlled, the information presented on high resolution monitors, and the responses recorded via a response model containing two buttons: one marked ‘no’ and the other ‘yes’. Five CDR composite scores were used as the primary/secondary outcome variables. The task titles were: • Word Presentation • Immediate Word Recall • Picture Presentation • Simple Reaction Time • Digit Vigilance • Choice Reaction Time • Spatial Working Memory • Numeric Working Memory • Delayed Word Recall • Word Recognition • Picture Recognition • Bond-Lader Visual Analogue Scales of Mood and Alertness • Screen, Using the Computer Mouse
# Difference from baseline data for each major variable was evaluated by an Analysis of Covariance (“ANCOVA”) using SAS® PROC MIXED Version 8.2. Fixed effects for treatment, day, time point, treatment by day, treatment by time point, treatment by day by time-point were fitted. Subject within treatment was fitted as a repeated effect using the repeated statement. The compound symmetry covariance structure was used. Subjects' time-matched predose assessments on Day 0 were used as a covariate in the analysis.
# Least squares means (LS means) were calculated for treatment by day, treatment by time-point and treatment by day by time-point interaction. This formal analysis was conducted for the ITT and Study PP Populations separately.
# A post-hoc analysis compared the individual placebo groups (1 g, 2 g and 4 g paraffin oil) with the corresponding ethyl-EPA doses.
# [1] = post-hoc analysis, 1 g, Days 14 and 28
smiles,measurement,setting,value
"CC/C=C\C/C=C\C/C=C\C/C=C\C/C=C\CCCC(=O)OCC [IPE, all-cis eicosa-5,8,11,14,17-pentaenoic acid ethyl ester]","Continuity of Attention, effect of treatment",ITT,no statistically significant effect of treatment
same,"Quality of Episodic Secondary Memory, effect of treatment",ITT,no statistically significant effect of treatment
same,"Self-Rated Alertness, effect of treatment",ITT,no statistically significant effect of treatment
same,"Self-Rated Calmness, effect of treatment",ITT,no statistically significant effect of treatment
same,"Self-Rated Contentment, LS mean difference to placebo",ITT,no statistically significant effects
same,"Speed of Memory and contributing subtasks, effect of treatment",ITT,no statistically significant effects of treatment
same,"Power of Attention, effect of treatment","ITT, 1, 2, 4 g daily vs placebo",no statistically significant effect of treatment
same,"Immediate Word Recall Accuracy, LS mean difference versus placebo","ITT, 1 g, AM 1, p=0.040",statistically significant decreases
same,"Immediate Word Recall Accuracy, LS mean difference versus placebo","ITT, 1 g, Day 14, p=0.028",statistically significant decreases
same,Picture Recognition Speed versus placebo,"ITT, 1 g, Day 14 at AM 2, p=0.084",trends for benefits
same,"Immediate Word Recall Accuracy, LS mean difference versus placebo","ITT, 1 g, Day 14 at PM 2, p=0.020",statistically significant decreases
same,"Word Recognition Sensitivity Index, LS mean difference versus placebo","ITT, 1 g, Day 28, p=0.024",statistically significant decreases
same,Picture Recognition Speed versus placebo,"ITT, 1 g, Day 28 at AM 1, p=0.085",trends for benefits
same,"Picture Recognition Sensitivity Index, LS mean difference versus placebo","ITT, 1 g, Day 28 at AM 2, p=0.017",statistically significant decrease
same,"Picture Recognition Sensitivity Index, LS mean difference versus placebo","ITT, 1 g, Day 28 at PM 2, p=0.040",statistically significant decrease
same,"Quality of Episodic Secondary Memory, LS mean difference versus placebo","ITT, 1 g, p=0.040",statistically significant decreases
same,"Immediate Word Recall Accuracy, LS mean difference versus placebo","ITT, 2 g, AM 1, p=0.028",statistically significant decreases
same,"Immediate Word Recall Accuracy, LS mean difference versus placebo","ITT, 2 g, Day 28, p=0.017",statistically significant decreases
same,"Self-Rated Alertness, LS mean difference versus placebo","ITT, 2 g, Day 28, p=0.047",statistically significant decrease in ratings
same,"Immediate Word Recall Accuracy, LS mean difference versus placebo","ITT, 2 g, Day 28 at AM 1, p=0.006",statistically significant decreases
same,"Self-Rated Alertness, LS mean difference versus placebo","ITT, 2 g, Day 28 at AM 2, p=0.041",statistically significant decrease in ratings
same,"Quality of Episodic Secondary Memory, LS mean difference versus placebo","ITT, 2 g, p=0.035",statistically significant decreases
same,"Spatial Working Memory Speed, LS mean difference versus placebo","ITT, 4 g, Day 14 at PM 1, p=0.048",statistically significant benefit
same,"Word Recognition Sensitivity Index, LS mean difference versus placebo","ITT, 4 g, Day 28 at PM 2, p=0.030",statistically significant decrease
same,"Word Recognition Sensitivity Index, LS mean difference versus placebo","ITT, 4 g, Day 42, p=0.038",statistically significant decreases
same,"Spatial Working Memory Speed, LS mean difference versus placebo","ITT, 4 g, Day 42 at AM 1, p=0.061",trend for a benefit
same,"Word Recognition Sensitivity Index, LS mean difference versus placebo","ITT, 4 g, PM 2, p=0.045",statistically significant decrease
same,"Self-Rated Contentment, treatment effects",ITT,statistically significant treatment by day interaction
same,"Choice Reaction Time, treatment effects","ITT, p=0.011",statistically significant treatment by day interaction
same,"Spatial Working Memory Sensitivity Index, treatment effects","ITT, p=0.015",statistically significant treatment by day interaction
same,"Quality of Working Memory, treatment effects","ITT, p=0.019",statistically significant treatment by day interaction
same,"Numeric Working Memory Sensitivity Index, treatment effects","ITT, p=0.089",statistical trend for a treatment by day interaction
same,"Continuity of Attention, effect of treatment",Study Per Protocol,no statistically significant effect of treatment
same,"Digit Vigilance Targets Detected, treatment effects","Study Per Protocol, p=0.040",statistically significant treatment by time-point interaction
same,"Power of Attention, effect of treatment",Study Per-Protocol,no statistically significant effect of treatment
same,"Quality of Episodic Secondary Memory, effect of treatment",Study Per-Protocol,no statistically significant effects of treatment
same,"Self-Rated Alertness, effect of treatment",Study Per-Protocol,no statistically significant effect of treatment
same,"Self-Rated Calmness, effect of treatment",Study Per-Protocol,no statistically significant effect of treatment
same,"Self-Rated Contentment, LS mean difference to placebo",Study Per-Protocol,no statistically significant effects
same,"Speed of Memory and contributing subtasks, effect of treatment",Study Per-Protocol,no statistical significant effects of treatment
same,"Immediate Word Recall Accuracy, LS mean difference to placebo","Study Per-Protocol, 1 g, AM 1, p=0.038",statistically significant decreases
same,"Immediate Word Recall Accuracy, LS mean difference to placebo","Study Per-Protocol, 1 g, AM 2, p=0.048",statistically significant decreases
same,"Immediate Word Recall Accuracy, LS mean difference to placebo","Study Per-Protocol, 1 g, Day 14, p=0.024",statistically significant decreases
same,"Immediate Word Recall Accuracy, LS mean difference to placebo","Study Per-Protocol, 1 g, Day 14 at PM 2, p=0.019",statistically significant decreases
same,"Word Recognition Sensitivity Index, LS mean difference to placebo","Study Per-Protocol, 1 g, Day 28, p=0.027",statistically significant decreases
same,"Picture Recognition Sensitivity Index, LS mean difference versus placebo","Study Per-Protocol, 1 g, Day 28 at AM 2, p=0.020",statistically significant decreases
same,"Picture Recognition Sensitivity Index, LS mean difference versus placebo","Study Per-Protocol, 1 g, Day 28 at PM 2, p=0.026",statistically significant decreases
same,"Quality of Episodic Secondary Memory, LS mean difference versus placebo","Study Per-Protocol, 1 g, p=0.043",statistically significant decreases
same,"Immediate Word Recall Accuracy, LS mean difference to placebo","Study Per-Protocol, 2 g, AM 1, p=0.029",statistically significant decreases
same,"Immediate Word Recall Accuracy, LS mean difference to placebo","Study Per-Protocol, 2 g, Day 28, p=0.017",statistically significant decreases
same,"Self-Rated Alertness, LS mean difference versus placebo","Study Per-Protocol, 2 g, Day 28, p=0.035",statistically significant decrease in ratings
same,"Immediate Word Recall Accuracy, LS mean difference to placebo","Study Per-Protocol, 2 g, Day 28 at AM 1, p=0.006",statistically significant decreases
same,"Self-Rated Alertness, LS mean difference versus placebo","Study Per-Protocol, 2 g, Day 28 at AM 2, p=0.033",statistically significant decrease in ratings
same,"Quality of Episodic Secondary Memory, LS mean difference versus placebo","Study Per-Protocol, 2 g, p=0.036",statistically significant decreases
same,"Word Recognition Sensitivity Index, LS mean difference to placebo","Study Per-Protocol, 4 g, Day 42, p=0.038",statistically significant decreases
same,"Self-Rated Calmness, LS mean difference versus placebo","Study Per-Protocol, 4 g, Day 42 at PM 1, p=0.071",statistical trend for an increase in ratings
same,"Self-Rated Contentment, treatment effects",Study Per-Protocol,statistically significant treatment by day interaction
same,"Choice Reaction Time, treatment effects","Study Per-Protocol, p=0.013",statistically significant treatment by day interaction
same,"Spatial Working Memory Sensitivity Index, treatment effects","Study Per-Protocol, p=0.014",statistically significant treatment by day interaction
same,"Quality of Working Memory, treatment effects","Study Per-Protocol, p=0.021",statistically significant treatment by day interaction
same,Self-Rated Calmness versus corresponding placebo,post-hoc analysis,no differences between active treatment and placebo
same,Self-rated Alertness versus corresponding placebo,[1],decreases in ratings
same,Self-rated Contentment versus corresponding placebo,[1],decreases in ratings
same,Power of Attention versus corresponding placebo,"post-hoc analysis, 4 g, Day 42",overall benefit versus the corresponding placebo
same,Spatial Working Memory Sensitivity Index versus corresponding placebo,"post-hoc analysis, 4 g, Day 42, Study PP Population",overall benefit
same,Simple Reaction Time versus corresponding placebo,"post-hoc analysis, 4 g, PM 2 collapsed across days and several time-points on Days 14 and 42",improvements in performance
same,Choice Reaction Time versus corresponding placebo,"post-hoc analysis, 4 g, all study days",overall benefit versus corresponding placebo
same,subtask measures of Speed of Memory versus corresponding placebo,"post-hoc analysis, mostly for 1 g",some signs of improvement in performance
